In patent US20250295610A1, “NEUROPROTECTIVE AGENTS FOR USE IN THE TREATMENT OF OPTIC NEUROPATHIES” (The Board of Trustees of the Leland Stanford Junior …, priority 2021, published 2025):
Entries after “also recorded” stand apart in the source; their conditions may differ.

Key:
[1] = tested on: CHOP promoter-driven luciferase (CHOP-Luc) in HEK293T cells; assay: CHOP-Luc reporter cell-based assay (HTS and retest); parameters: species or system human; conditions: Tm/Tg 1 μM; for CHOP-luciferase activity induced by ER stress (Tm/Tg): compound at 10 µM, relative to DMSO (FIG. 1d); for CHOP-luciferase activity: compound at 20 μM, 24 hours (FIG. 9e)
Procedure: ER stress reporter cell lines.
Cell-based HTS. The HTS to identify CHOP expression inhibitors was performed at the Stanford High-Throughput Bioscience Center with small molecule libraries containing 4846 total known bioactive, FDA approved drugs and clinical trial compounds; libraries included Biomol FDA, Biomol ICCB, Microsource (MS) Spectrum, Sigma LOPAC, and NIH Clinical Collection (NIH-CC). All the compounds were run in 7-point dose response based on a previous publication; except the NIH Clinical collection (446 compounds) which were tested in duplicate due to the small quantity of compounds on hand. Most of the NIH-CC was screened at 10 µM, but this varied per compound. […] We used the Pin Tool to transfer 100 nL of the compounds into 50 μL final volume. Therefore, we did a 500-fold dilution of the stock plates, which were at 10, 5, 2.5, 1.25, 0.625, 0.3125, and 0.156 mM resulting in final concentrations of 20, 10, 5, 2.5, 1.25, 0.625, and 0.3125 µM (for most of the compounds but not all). The final DMSO concentration was 0.2% for all wells. Briefly, CHOP-Luc cells were seeded in 384-well plates (Greiner Bio-One […]) at a density of 2×10^5 cells per well in 40 μL medium and cultured for 24 hours before treatment with tunicamycin (Tm)+thapsigargin (Tg) at 1 μM in 10 μL medium followed by adding 100 nL of one of the testing compounds using a Staccato SciClone ALH3000 small molecule liquid handling system (Caliper Life Sciences) and V&P Scientific 384 pin tools. AeraSeal sterile adhesive microplate seals (Excel Scientific; Victorville, CA) were used to seal plates that were incubated at 5% CO2, 37° C. for 24 hours, when luciferase activity was assayed by adding 10 μL of Bright™-Glo Luciferase reagent (Promega) to each well and detected by a Tecan Infinite M1000 Pro plate reader. Percentage of CHOP-Luc inhibition=100%−(Compound value−DMSO control value)/(Tm/Tg value−DMSO control value)×100%. The compounds achieving >30% of CHOP-Luc inhibition were considered as “hits”. Luciferase activity of all the tested compounds was determined by meta-analysis of luciferase activity in different cell lines under the control of a generic or other promoters. Any compound that appeared in more than 3 non-related luciferase screens was likely a toxic compound or luciferase inhibitor and therefore eliminated. There was no true cutoff, other than an IC50<20 µM (or the highest concentration tested).

[2] = tested on: RGC somata and axons, mouse ONC model; assay: Neuroprotection in traumatic ON crush (ONC) model; format: in vivo; conditions: for neuroprotection of RGCs and ONs: mouse ONC model, traumatic ON injury; for GCC thickness by OCT: mouse ONC, intravitreal 2 μl of 2 mM once + i.p. 15 mg/kg daily, vs DMSO
Procedure: (§1) ON crush model. The ON was exposed intraorbitally while care was taken not to damage the underlying ophthalmic artery, and crushed with a jeweler's forceps (Dumont #5; Fine Science Tools, Foster City, California) for 5 seconds approximately 0.5 mm behind the eyeball. Eye ointment containing neomycin (Akorn, Somerset, New Jersey) was applied to protect the cornea after surgery. For compound treatment, each eye received intravitreal injection with 2 μl of 2 mM test compounds once and intraperitoneal (i.p.) injection daily (15 mg/kg) for 14 days after ONC.

[3] = tested on: ONC-induced ER stress in RGCs; assay: ER stress molecules in RGCs and ONs after ON crush (ONC); conditions: mouse, after traumatic ON injury, in vivo application
Procedure: Protein Preparation and Immunoblotting. Cell and tissue lysates were prepared in RIPA buffer (Themo Fisher Scientific, 89901) and supplemented with Halt Protease inhibitor cocktail (Themo Fisher Scientific, PI78437). The total protein concentration of lysates was measured by the Pierce BCA Protein Assay Kit (Thermo Fisher Scientific, 23227). 20 μg protein of each sample were denatured at 95° C. for 15 min in 100 mM DTT+1× Laemmli buffer before being separated by SDS-PAGE. We then transferred the protein samples to 0.2 μm nitrocellulose membranes (Bio-Rad, 1610097) and blocked with 5% BSA for 2 hours. Subsequently, the membranes were incubated with primary antibodies (1:1000) overnight at 4° C. After washing in TBST, these membranes were incubated with horseradish peroxidase-conjugated secondary antibodies (Cell Signaling, 7074S and 7076S, 1:1000) and visualized using a GE-A1600 imaging system. Images were quantified with ImageJ software. The primary antibodies used were PERK (Cell Signaling, 3192S), p-PERK (Cell Signaling, 3179S), eIF2a (Cell Signaling, 5324S), p-eIF2a (Cell Signaling, 3597L), ATF4 (Cell Signaling, 11815S), CHOP (Cell Signaling, 2895S), ATF6 (Cell Signaling, 65880T), IRE1a (Cell Signaling, 3294T), IRE1 (phosphor-S724) (Thermo Fisher, PA116927), phospho-SAPK/JNK (Thr183/Tyr185) (Cell Signaling, 9251S), phospho-p38 MAPK (Thr180/Tyr182) (Cell Signaling, 9215S), β-Actin (sigma, A5441), XBP-1s (Biolegend, 647502), XBP-1 (Santa Cruz, sc-8501), anti-RBPMS (Custom made at ProSci Inc).
as §1, with “ONC. […]” for “ONC.”

[4] = tested on: three UPR pathways induced by ER stress (Tm/Tg) in HEK293T cells; assay: UPR signaling cascades in HEK293T cells (immunoblot, RT-PCR, qPCR); format: cell-based, human; conditions: Tm/Tg 1 μM; for UPR pathways induced by ER stress: HEK293T cells, compound 10 μM; for XBP-1 mRNA splicing: RT-PCR
[5] = tested on: XBP-1-Luc HEK293T reporter cell line (IRE1α activity and XBP-1 splicing); conditions: Tm/Tg 1 μM, 24 hours
RGCs expressing jGCaMP7s = conditions: living mice, SLO, early and later time points after ONC
Procedure: In vivo RGC Ca^2 + imaging with SLO. The mice were intravitreally injected with AAV2-mSncg-jGCaMP7s (9×10^9 vg/retina) 4 weeks before imaging. The mice were anesthetized by xylazine and ketamine after dark adaptation for 30 minutes. Mydriasis was achieved by applying a drop of 1% tropicamide solution and a drop of 2.5% phenylephrine hydrochloride solution, which prevents pupillary contraction during recording. Right after ON crush, the mice were placed on a 3D-printed mouse holder with a 37° C. heater, and a custom-made+10D mouse contact lens (3.0 mm diameter, 1.6 mm BC, PMMA clear, Advanced Vision Technologies) attached to keep the cornea from drying. The retinal fundus was imaged by the Heidelberg Spectralis SLO/OCT system (Heidelberg Engineering, Germany) with a 55° lens using the fluorescein angiography scanning mode under the same sensitivity (sensitivity 75-85) and high-resolution (1536×1536 pixels).

RGCs expressing D4ER = conditions: mouse retina explants after ONC
Procedure: Ex vivo ER Ca^2 + imaging in retina explants. ER calcium levels were measured using the Forster resonance energy transfer (FRET)-based ER targeted calcium sensor, D4ER. […] For imaging, retinas were dissected out at 3, 7 or 14dpc and plated onto laminin (Sigma, L2020) and poly-D-lysin-coated glass bottom dishes (MatTek, P35GC1.510C) and maintained in Neurobasal-A medium (ThermoFisher Scientific, 10888022) supplemented with L-glutamine (Gibco, 25030-081), penicillin/streptomycin (Gibco, 15140122) and B-27 (ThermoFisher Scientific, 0080085SA). Retina explants were imaged using a Zeiss LSM 800 microscope. ER [Ca^2 +] levels were determined by exciting D4ER at 440 nm to record the emitted light at 465-485 nm and 530-550 nm, and analyzed with ImageJ.

HEK293T cells = HEK293T cells expressing jGCaMP7s, Tm/Tg 1 μM
Procedure: HEK293T cells were seeded at 10% confluence the day before transfection in poly-D-lysin-coated glass bottom 35 mm dishes (MatTek, P35GC1.510C). Two hours prior to transfection, media was removed and 1 mL of FBS-free DMEM media was added to each well. We then mixed 2 μg of the jGCaMP7s plasmid in 100 μl DMEM. In a separate tube, we diluted 4 μl PolyJet™ (SignaGen Laboratories, SL100688) reagent in 100 μl with DMEM, and incubate for 10 minutes. The complete mixture of DNA and PolyJet was incubated for another 15 min before being added to the HEK293T cells. Six hours later, the media was changed to 1 ml/well culture media. The next day, cytosolic Ca^2 + was imaged in cells transiently transfected with jGCaMP7s through a Zeiss LSM 800 confocal microscope. Dynamic intracellular Ca^2 + influx in response to Tm/Tg-induced ER stress was measured every 10 seconds for 100 seconds before Tm/Tg treatment to acquire baseline fluorescence (F0) and for 400 seconds after Tm/Tg administration to acquire F1. ΔF=F1−F0. Data were analyzed with ImageJ.

[6] = tested on: naïve mouse retinas and ON; conditions: one month after systemic administration
Procedure: Immunohistochemistry of whole mount and cross sections of retina. After perfusion fixation with 4% PFA in PBS, mice eyeballs and ONs were dissected out and post-fixed with 4% PFA for 2 hours at room temperature. Retinas were dissected out for whole mount retina immunostaining. For cryo-section with Leica cryostat, the eyeballs and ONs were embedded in tissue-tek OCT (Sakura) on dry ice for subsequent cryo-section. The sections were blocked with 10% goat serum (Sigma, G9023) for 2 hours before incubating with primary antibodies: RBPMS 1:4000, others 1:200 overnight at 4° C. […]
RGC counting. Whole-mount retinas were immunostained with the RBPMS antibody, 6-8 fields randomly sampled from peripheral regions of each retina using a 40× lens with a Zeiss M2 epifluorescence microscope, and RBPMS+RGCs counted by Volocity software (Quorum Technologies). The percentage of RGC survival was calculated as the ratio of surviving RGC numbers in injured eyes compared to contralateral uninjured eyes. The investigators who counted the cells were masked to the treatment of the samples.
ON semi-thin sections and quantification of surviving axons. […] Two areas of 21.4 μm×29.1 μm were cropped from the center of each image, and the surviving axons within the designated areas counted manually using ImageJ. […]

[7] = mouse, 6 and 24 hours after injection
Procedure: Retinal tissues were homogenized with 100 μL of pre-chilled 20% acetonitrile and then diluted 2-fold with blank mouse plasma. An aliquot of 20 μL of diluted retina homogenate was extracted with 100 μL of methanol: acetonitrile (5:95, v: v) containing the internal standard (Verapamil). The mixture was shaken on a shaker for 15 minutes and then centrifuged at 3220 g for 15 minutes. An aliquot of 70 μL of the supernatant was mixed with 70 μL of water for the injection to the LC-MS. Calibration standards and quality control samples were prepared by spiking 2 μL of the test compound into 18 μL of blank mouse plasma, and the resulting plasma was processed with the unknown samples in the same batch. The extracts were analyzed by a Shimadzu LC-30AD interfaced to a Sciex API 5000 system. The extracts were injected onto an ACE 3 C18 column (50×2.1 mm, 3.0 μm) and separated by the gradient elution using water with 10 mM ammonium acetate (A) and acetonitrile with 0.1% formic acid (B) as mobile phases. The gradient program started at 10% B, held for 0.2 min, ramped to 95% B at 1.5 min, remained at 95% at 2.4 min, dropped to 10% B at 2.45 min, and stayed at 10% B till 3.2 min. […] The calibration curve fitted by linear regression was used to quantify the analytes in the matrix using Analyst software 1.6.2 (Sciex).

[8] = tested on: visual function, mouse SOHU glaucoma model; assay: Visual function (PERG, OKR) in SOHU glaucoma model; format: in vivo; conditions: 3wpi, vs DMSO
Procedure: Control groups received the same volume of DMSO as vehicle control.
Pattern Electroretinogram (PERG) recording. After anesthetization and pupil dilation, PERG of both eyes was recorded simultaneously with the Miami PERG system (Intelligent Hearing Systems, Miami, Florida) according to manufacturer's instructions. Two consecutive recordings of 200 traces were averaged to achieve one readout; each trace recorded up to 1020 ms. The first positive peak in the waveform was designated as P1 and the second negative peak as N2. The amplitude was measured from P1 to N2.
Optokinetic Tracking Response (OKR). Mice were placed on a platform in the center of four 17-inch LCD computer monitors (Dell, Phoenix, AZ), with a video camera above the platform to capture the movement of the mouse. A rotating cylinder with vertical sine wave grating was computed and projected to the four monitors by OptoMotry software (Cere-bralMechanics Inc, Lethbridge, Alberta, Canada). […] The maximum frequency (cycle/degree) that the mouse could track was identified and recorded by investigators masked to treatment. The relative percentages of visual acuity were calculated as the ratio of maximum frequency in disease eye compared to contralateral control eye.

[9] = tested on: CHO luciferase reporter cell line driven by murine CHOP promoter; conditions: different CHO luciferase reporter cell line; cited from earlier work
[10] = HEK293T, immunoblot, 10 μM, 24 hours

Structure (SMILES)	CHOP-luciferase activity induced by ER stress (Tm/Tg) ([1]; 24 hours)	neuroprotection of RGCs and ONs [2]	CHOP-luciferase activity [1]	RGC ER stress [3]	UPR pathways induced by ER stress [4]	GCC thickness by OCT ([2]; 14dpc)	further results
Cn1cc(-c2ccc3c(c2)CCN3C(=O)Cc2cccc(C(F)(F)F)c2)c2c(N)ncnc21 [GSK2606414]	–	–	–	–	–	–	CHOP-luciferase activity induced by Tm/Tg, reference compounds ([1]; FIG. 1d and FIG. 9e (10 µM and 20 μM), 24 hours): significantly inhibited
O=C(COc1ccc(Cl)cc1)NC1CCC(NC(=O)COc2ccc(Cl)cc2)CC1 (stereo not drawn) [ISRIB]	no effect; also recorded: did not have a significant inhibition effect	provided neuroprotection in the ONC mouse model, to a lesser degree than maprotiline; also recorded: significant neuroprotection	–	–	–	–	–
COc1ccc2c(c1)CC[C@@H]1[C@@H]2CC[C@]2(C)[C@@H](NCCCCCCN3C(=O)C=CC3=O)CC[C@@H]12 [U-73122]	–	–	–	–	–	–	protection of RGC axons ([2]; mouse, after ONC injury, 14dpc): protected; protection of RGC somata ([2]; mouse, after ONC injury, 14dpc): protected
CN(C)CCC=C1c2ccccc2CCc2ccccc21 [amitriptyline]	–	–	inhibited	–	–	–	–
Clc1ccc2c(c1)C(N1CCNCC1)=Nc1ccccc1O2 [amoxapine]	significantly inhibited	significantly protects	–	effectively inhibits	inhibit all three UPR pathways	significantly thicker	XBP-1 mRNA splicing ([4]; HEK293T, 10 μM, 24 hours): significantly inhibited
CN(C)CCCN1c2ccccc2CCc2ccc(Cl)cc21 [clomipramine]	–	–	inhibited	–	–	–	–
CNCCCN1c2ccccc2CCc2ccccc21 [desipramine]	–	–	inhibited	–	–	–	–
Clc1ccc2c(c1)CCc1cccnc1C2=C1CCNCC1 [desloratadine]	–	significantly protects	–	effectively inhibits	inhibit all three UPR pathways	significantly thicker	JNK phosphorylation [4, 10]: significantly inhibited
CNCCCC12CCC(c3ccccc31)c1ccccc12 [maprotiline]	significantly inhibited	significantly protects	–	effectively inhibits	inhibit all three UPR pathways	significantly thicker	XBP-1 splicing induced by Tm/Tg (XBP-1s-Luc) [5]: dose-dependent inhibition; downstream genes of UPR at the mRNA levels (qPCR) ([4]; HEK293T, 12 hours, 10 µM): the most striking modulation; XBP-1 mRNA splicing ([4]; HEK293T, 10 μM, 24 hours): significantly inhibited; IRE1α phosphorylation [4, 10]: inhibited; JNK phosphorylation [4, 10]: significantly inhibited; intra-RGC Ca2+ levels after ONC (RGCs expressing jGCaMP7s): significantly decreased; ER Ca2+ concentration of RGCs after ONC (D4ER FRET) (RGCs expressing D4ER): maintained ER Ca^2 + concentration at much higher levels; Tm/Tg-induced intracellular Ca2+ influx (HEK293T cells): significantly blocked; RGC or ON degeneration [6]: no RGC or ON degeneration; immune cell infiltration in retina and ON [6]: no immune cell infiltration; maprotiline in the retina after i.p. injection (LC-MS) [7]: presence of maprotiline in the retina; amplitude of PERG [8]: improved; visual acuity (OKR) [8]: improved
CN1CCN(CCCN2c3ccccc3Sc3ccc(C(F)(F)F)cc32)CC1 [trifluoperazine]	–	–	inhibited	–	–	–	CHOP inhibitor in a previous study [9]: CHOP inhibitor
